ChEMBL document CHEMBL5532640, “Medicinal chemistry strategies targeting NLRP3 inflammasome pathway: A recent update from 2019 to mid-2023” (Eur J Med Chem, 2023)
≈ marks a conversion by molar mass, not a printed value. Values belong to the compound of their own block, whether it stands above or below them.

Key:
[1] = biological target: T1, NACHT, LRR and PYD domains-containing protein 3 (Homo sapiens, UniProt Q96P20); assay: Inhibition of NLRP3 in human THP-1 cells assessed as reduction in LPS/ATP induced IL-1beta release at 10 uM preincubated with LPS for 4 hrs followed by compound addition for 1 hr prior to ATP stimulation for 1.5 hrs by ELISA relative to control; format: cell-based; conditions: time 2.5 hrs
T1 sequence (Q96P20 whole entry, the tested form may be a part): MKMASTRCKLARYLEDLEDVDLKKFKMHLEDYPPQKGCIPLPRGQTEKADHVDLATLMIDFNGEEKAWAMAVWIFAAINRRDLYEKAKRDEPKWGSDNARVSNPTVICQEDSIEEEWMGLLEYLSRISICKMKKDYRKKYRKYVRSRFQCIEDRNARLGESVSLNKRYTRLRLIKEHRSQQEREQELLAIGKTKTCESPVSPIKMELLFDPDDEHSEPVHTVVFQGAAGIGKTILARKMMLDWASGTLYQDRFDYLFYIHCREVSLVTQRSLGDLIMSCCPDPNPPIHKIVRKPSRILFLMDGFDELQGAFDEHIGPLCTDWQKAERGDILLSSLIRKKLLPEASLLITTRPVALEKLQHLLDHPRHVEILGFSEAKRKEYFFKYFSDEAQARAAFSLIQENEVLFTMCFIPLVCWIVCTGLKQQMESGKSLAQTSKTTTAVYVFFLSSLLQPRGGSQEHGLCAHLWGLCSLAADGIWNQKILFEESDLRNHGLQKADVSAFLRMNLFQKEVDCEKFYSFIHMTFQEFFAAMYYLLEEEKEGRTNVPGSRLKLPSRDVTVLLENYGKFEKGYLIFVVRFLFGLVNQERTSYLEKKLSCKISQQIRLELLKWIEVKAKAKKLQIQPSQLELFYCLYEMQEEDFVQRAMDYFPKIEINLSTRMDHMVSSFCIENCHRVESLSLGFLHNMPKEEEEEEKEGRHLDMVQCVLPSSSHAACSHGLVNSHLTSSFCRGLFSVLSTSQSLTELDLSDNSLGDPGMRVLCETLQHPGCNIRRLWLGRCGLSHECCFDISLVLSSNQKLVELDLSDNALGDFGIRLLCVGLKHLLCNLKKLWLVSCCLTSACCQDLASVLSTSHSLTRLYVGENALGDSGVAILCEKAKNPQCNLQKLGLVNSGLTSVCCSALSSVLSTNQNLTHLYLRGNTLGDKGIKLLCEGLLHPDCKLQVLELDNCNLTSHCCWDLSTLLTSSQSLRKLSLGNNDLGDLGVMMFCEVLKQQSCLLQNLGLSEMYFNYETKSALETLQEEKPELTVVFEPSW

[2] = biological target: T2, NACHT, LRR and PYD domains-containing protein 3 (Mus musculus, UniProt Q8R4B8); assay: Inhibition of NLRP3 in mouse J774.A1 cells assessed as reduction in LPS/ATP induced IL-1beta secretion; format: cell-based
T2 sequence (Q8R4B8 whole entry, the tested form may be a part): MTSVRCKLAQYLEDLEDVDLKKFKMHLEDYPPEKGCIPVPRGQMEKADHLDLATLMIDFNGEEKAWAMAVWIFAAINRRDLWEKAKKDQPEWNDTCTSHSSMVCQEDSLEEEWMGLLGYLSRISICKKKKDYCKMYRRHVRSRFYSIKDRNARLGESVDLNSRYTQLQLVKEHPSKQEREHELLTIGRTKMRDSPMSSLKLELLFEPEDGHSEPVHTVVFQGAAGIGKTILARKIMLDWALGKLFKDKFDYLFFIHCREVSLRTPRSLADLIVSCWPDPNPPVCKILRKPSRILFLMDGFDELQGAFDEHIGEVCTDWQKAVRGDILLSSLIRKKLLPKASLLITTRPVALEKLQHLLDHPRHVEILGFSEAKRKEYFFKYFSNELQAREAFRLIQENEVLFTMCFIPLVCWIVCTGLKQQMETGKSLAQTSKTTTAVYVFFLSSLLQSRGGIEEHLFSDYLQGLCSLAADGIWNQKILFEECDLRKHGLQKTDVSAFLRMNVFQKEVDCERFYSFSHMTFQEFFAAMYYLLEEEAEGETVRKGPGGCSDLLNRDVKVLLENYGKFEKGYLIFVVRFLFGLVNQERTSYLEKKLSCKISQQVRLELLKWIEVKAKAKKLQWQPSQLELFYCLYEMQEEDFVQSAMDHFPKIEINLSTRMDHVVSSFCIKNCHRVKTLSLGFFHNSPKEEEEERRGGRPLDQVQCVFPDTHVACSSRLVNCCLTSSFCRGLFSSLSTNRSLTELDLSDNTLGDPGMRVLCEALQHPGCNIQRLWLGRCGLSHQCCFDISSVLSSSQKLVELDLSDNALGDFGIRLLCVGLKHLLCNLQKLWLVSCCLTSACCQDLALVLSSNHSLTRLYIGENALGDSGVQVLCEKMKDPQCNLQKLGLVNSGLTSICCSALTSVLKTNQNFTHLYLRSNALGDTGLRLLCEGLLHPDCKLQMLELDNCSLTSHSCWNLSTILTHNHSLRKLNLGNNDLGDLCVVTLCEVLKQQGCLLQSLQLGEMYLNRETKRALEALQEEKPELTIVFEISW

[3] = Inhibition of LPS/nigericin induced LDH release in mouse J774.A1 cells; format: functional, cell-based
[4] = Stability in mouse liver microsomes assessed as compound remaining after 60 mins; format: ADME, Microsome; conditions: read-out: Stability
[5] = Stability in human liver microsomes assessed as compound remaining after 60 mins; format: ADME, Microsome; conditions: read-out: Stability
[6] = Half life in C57BL/6 mouse at 20 mg/kg, po; format: ADME, organism-based; conditions: in vivo
[7] = biological target: T2, NACHT, LRR and PYD domains-containing protein 3; assay: Inhibition of NLRP3 in mouse BMDMs assessed as reduction in LPS/ATP-induced IL-1beta release preincubated for 30 mins in presence of LPS followed by ATP addition and measured after 1 hr by ELISA; format: cell-based, BMDM
[8] = Cytotoxicity against mouse J774.A1 cells; format: toxicity, cell-based; conditions: read-out: TC50 (the source's name)
[9] = biological target: T2, NACHT, LRR and PYD domains-containing protein 3; assay: Inhibition of NLRP3 in LPS/ATP induced mouse J774.A1 cells; format: cell-based
[10] = Solubility of the compound at pH 1.5; format: physicochemical; conditions: buffer
[11] = biological target: T2, NACHT, LRR and PYD domains-containing protein 3; assay: Inhibition of NLRP3 inflammasome in mouse BMDMs assessed as reduction in IL-1beta activity preincubated with LPS for 4 hrs followed by compound addition for 30 mins prior to nigericin addition and measured after 1 hr by ELISA; format: cell-based, BMDM
[12] = biological target: T2, NACHT, LRR and PYD domains-containing protein 3; assay: Covalent inhibition of NLRP3 in mouse BMDMs assessed as reduction in LPS/nigericin induced IL-1beta secretion pretreated with LPS for 3 hrs followed by compound addition for 30 mins prior to nigericin addition and measured after 30 mins by ELISA; format: cell-based, BMDM
[13] = biological target: T2, NACHT, LRR and PYD domains-containing protein 3; assay: Inhibition of NLRP3 inflammasome in mouse J774.A1 cells assessed as decrease in LPS/nigericin induced IL-1beta level preincubated with LPS for 4 hrs followed by compound addition for 1 hr in presence nigericin by ELISA; format: cell-based
[14] = biological target: T1, NACHT, LRR and PYD domains-containing protein 3; assay: Inhibition of NLRP3 inflammasome in human MDM cells assessed as reduction in LPS/nigericin induced IL-1beta secretion […] prior to nigericin addition and measured after 5 hrs by ELISA; format: cell-based
[15] = Cmax in human at 1000 mg per day, po administered for 8 consecutive days; format: ADME, organism-based; conditions: in vivo
[16] = biological target: T1, NACHT, LRR and PYD domains-containing protein 3; assay: Inhibition of NLRP3 in LPS/ATP induced human THP1 cells; format: cell-based, THP-1
[17] = Inhibition of porcine whole blood NLRP3 assessed as reduction in LPS/ATP induced IL-1beta secretion preincubated for 3 hrs in presence of LPS followed by ATP addition and measured after 1 hr by immunoassay; conditions: Sus scrofa

inhibition [1]: 21.1%
Compound: O=C(O)Cn1c(=O)n(C(=O)CCc2ccccc2Cl)c2ccccc21

IC50 [2]: 2410 nM
Compound: CCOCCOc1ccc(/C=C/c2cc(OC)cc(OC)c2/C=C/[N+](=O)[O-])cc1

IC50 [3]: 230 nM
Compound: CCO[C@@H]1C[C@H]2C(C)(C)CCC[C@]2(C)C2=C1C=C(C(C)C)C(=O)C2=O

remaining at 1 h [4]: > 70%
remaining at 1 h [5]: > 70%
half-life [6]: 3.27 h
Compound: CC(C)(O)c1coc(S(=O)(=O)NC(=O)Nc2c3c(cc4c2CCC4)CCC3)c1

IC50 [7]: 16 nM
Compound: CC(C)n1ccc(S(=O)(=O)NC(=O)Nc2c3c(cc4c2CCC4)CCC3)n1 [INZOMELID]

inhibition [1]: 25.2%
Compound: N#C/N=C(\NCc1ccccc1)NC1CCN(C(=O)CCc2ccccc2Cl)CC1

inhibition [1]: 14.4%
Compound: C=C(Cc1ccccc1Cl)C(=O)N1CCC(n2c(=O)[nH]c3ccccc32)CC1

IC50 [9]: 1830 nM
Compound: NS(=O)(=O)c1ccc(CCNC(=O)/C=C/S(=O)(=O)c2ccccc2Cl)cc1
CC50 [8]: 27500 nM

solubility [10]: 5760 µg/mL (≈ 13.3 mM)
Compound: CN[C@@H]1COc2c(S(=O)(=O)NC(=O)Nc3c4c(cc5c3CCC5)CCC4)cnn2C1

Compound: CC1(C)CCC[C@@]2(C)C1=C(O)C(=O)c1cc(C(C)(C)O)c(O)c(O)c12
IC50 [3]: 230 nM

IC50 [11]: 190 nM
Compound: CC1=C(O)C(=O)C=C2C1=CC=C1[C@@]2(C)[C@@H](Br)C[C@@]2(C)[C@@H]3C[C@@H](C)C(=O)C[C@]3(C)CC[C@]12C

IC50 [3]: 230 nM
Compound: CC(=O)O[C@H]1C=C2C=C(C(C)C)C(=O)C(O)=C2[C@@]2(C)CCCC(C)(C)[C@H]12

IC50 [3]: 230 nM
Compound: CO[C@@H]1C2=C(C(=O)C(=O)C(C(C)C)=C2)[C@@]2(C)CCCC(C)(C)[C@@H]2[C@H]1O

IC50 [12]: 183 nM
Compound: O=C(CBr)NCc1ccc(C(F)(F)F)cc1

Compound: CC1(C)OC(=O)C=C[C@@]2(C)[C@H]1CC(=O)[C@@]1(C)C3=CC[C@@H](C4=CC(=O)O[C@@H]4O)[C@]3(C)CC[C@@H]12
IC50 [13]: 3200 nM

IC50 [3]: 230 nM
Compound: CC(C)C1=CC2=C[C@H](O)[C@H]3C(C)(C)CCC[C@]3(C)[C@@]2(O)C(=O)C1=O

IC50 [3]: 230 nM
Compound: CCO[C@H]1C[C@H]2C(C)(C)CCC[C@]2(C)C2=C1C=C(C(C)C)C(=O)C2=O

IC50 [14]: 1000 nM
Cmax [15]: 41400 ng/mL
Compound: CS(=O)(=O)CCC#N

inhibition [1]: 10.3%
Compound: O=C(CCc1ccccc1Cl)N1CCC(n2c(=O)[nH]c3ccccc32)CC1

IC50 [9]: 920 nM
Compound: O=C(/C=C/S(=O)(=O)c1ccccc1Cl)OCCc1ccccc1
CC50 [8]: 41800 nM

Compound: CC1(C)OC(=O)C=C[C@]2(C)[C@H]3CC[C@@]4(C)[C@H](C5=CC(=O)NC5=O)C[C@H]5O[C@]54[C@]3(C)OC(=O)C[C@@H]12
IC50 [13]: 3200 nM

IC50 [16]: 5180 nM
Compound: C=C1C(=O)[C@]23[C@H](O)[C@H]1CC[C@H]2[C@@]12CO[C@]3(O)[C@@H](O)[C@@H]1C(C)(C)CC[C@@H]2O [ORIDONIN]

Compound: CC(=O)O[C@H]1[C@@H](OC(C)=O)[C@@]2(C)C3=CC[C@@H](C4=CC(=O)O[C@@H]4O)[C@]3(C)CC[C@@H]2[C@@]2(C)C=CC(=O)OC(C)(C)[C@H]12
IC50 [13]: 3200 nM

Compound: Cc1ccc(S(=O)(=O)/C=C/C#N)cc1
CC50 [8]: 6400 nM

inhibition [1]: 20.3%
Compound: O=C(CCc1ccccc1Cl)NCCn1c(=O)[nH]c2ccccc21

IC50 [17]: 350 nM
Compound: CCN1CCC(S(=O)(=O)NC(=O)Nc2c3c(cc4c2CCC4)CCC3)CC1 [SELNOFLAST]

Compound: CC(=O)O[C@@H]1C[C@H]2C(C)(C)OC(=O)C=C[C@]2(C)[C@H]2CC[C@]3(C)C(=CC[C@H]3C3=CC(=O)O[C@@H]3O)[C@@]21C
IC50 [13]: 3200 nM

Compound: COc1c(O)cc2c(c1C)C(=O)C=C1[C@@]2(C)CC[C@@]2(C)[C@@H]3C[C@@H](C)C(=O)[C@@H](O)[C@]3(C)CC[C@]12C
IC50 [11]: 1150 nM
